Measurements as given in ChEMBL document CHEMBL4393686, “InCl3 mediated heteroarylation of indoles and their derivatization via CH activation strategy: Discovery of 2-(1H-indol-3-yl)-quinoxaline derivatives as a new class of PDE4B selective inhibitors for arthritis and/or multiple sclerosis” (Eur J Med Chem, 2019).

Columns and labels:
[1] = molecular target: T1, 3',5'-cyclic-AMP phosphodiesterase 4B (Homo sapiens, UniProt Q07343); experiment: Inhibition of human recombinant His-tagged PDE4B expressed in Sf9 cells using cAMP as substrate at 10 uM preincubated with enzyme for 15 mins followed by substrate addition and incubated for 1 hr by PDELight HTS cAMP phosphodiesterase Kit based luminometry relative to control
T1 sequence (Q07343 whole entry): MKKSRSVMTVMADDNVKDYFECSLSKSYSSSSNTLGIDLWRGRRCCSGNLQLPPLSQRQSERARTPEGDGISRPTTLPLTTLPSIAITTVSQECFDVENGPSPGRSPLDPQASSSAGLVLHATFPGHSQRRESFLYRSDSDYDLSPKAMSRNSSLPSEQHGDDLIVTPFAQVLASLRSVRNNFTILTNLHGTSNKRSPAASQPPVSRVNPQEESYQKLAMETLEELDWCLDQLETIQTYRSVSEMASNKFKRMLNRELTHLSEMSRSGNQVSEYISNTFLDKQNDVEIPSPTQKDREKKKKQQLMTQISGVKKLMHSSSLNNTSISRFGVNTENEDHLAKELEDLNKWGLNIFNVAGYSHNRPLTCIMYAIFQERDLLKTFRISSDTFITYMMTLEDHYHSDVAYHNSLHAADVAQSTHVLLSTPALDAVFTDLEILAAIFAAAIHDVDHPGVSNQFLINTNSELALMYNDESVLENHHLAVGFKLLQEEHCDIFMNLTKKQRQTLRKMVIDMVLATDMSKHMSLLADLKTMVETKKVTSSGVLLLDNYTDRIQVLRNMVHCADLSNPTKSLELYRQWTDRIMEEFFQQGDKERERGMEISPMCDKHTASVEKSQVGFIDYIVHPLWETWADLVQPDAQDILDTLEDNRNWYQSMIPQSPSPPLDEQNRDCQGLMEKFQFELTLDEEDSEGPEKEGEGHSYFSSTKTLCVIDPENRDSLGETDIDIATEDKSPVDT

[2] = molecular target: T1, 3',5'-cyclic-AMP phosphodiesterase 4B; experiment: Inhibition of recombinant His-tagged human PDE4B expressed in Sf9 cells using cAMP as substrate preincubated with enzyme for 15 mins followed by substrate addition and incubated for 1 hr by PDELight HTS cAMP phosphodiesterase Kit based luminometry
[3] = molecular target: 3',5'-cyclic-AMP phosphodiesterase 4D (Homo sapiens, UniProt Q08499); experiment: Inhibition of PDE4D2 (unknown origin) using cAMP as substrate preincubated with enzyme for 15 mins followed by substrate addition and incubated for 1 hr by PDELight HTS cAMP phosphodiesterase Kit based luminometry
Chain of 3',5'-cyclic-AMP phosphodiesterase 4D (Q08499 whole entry): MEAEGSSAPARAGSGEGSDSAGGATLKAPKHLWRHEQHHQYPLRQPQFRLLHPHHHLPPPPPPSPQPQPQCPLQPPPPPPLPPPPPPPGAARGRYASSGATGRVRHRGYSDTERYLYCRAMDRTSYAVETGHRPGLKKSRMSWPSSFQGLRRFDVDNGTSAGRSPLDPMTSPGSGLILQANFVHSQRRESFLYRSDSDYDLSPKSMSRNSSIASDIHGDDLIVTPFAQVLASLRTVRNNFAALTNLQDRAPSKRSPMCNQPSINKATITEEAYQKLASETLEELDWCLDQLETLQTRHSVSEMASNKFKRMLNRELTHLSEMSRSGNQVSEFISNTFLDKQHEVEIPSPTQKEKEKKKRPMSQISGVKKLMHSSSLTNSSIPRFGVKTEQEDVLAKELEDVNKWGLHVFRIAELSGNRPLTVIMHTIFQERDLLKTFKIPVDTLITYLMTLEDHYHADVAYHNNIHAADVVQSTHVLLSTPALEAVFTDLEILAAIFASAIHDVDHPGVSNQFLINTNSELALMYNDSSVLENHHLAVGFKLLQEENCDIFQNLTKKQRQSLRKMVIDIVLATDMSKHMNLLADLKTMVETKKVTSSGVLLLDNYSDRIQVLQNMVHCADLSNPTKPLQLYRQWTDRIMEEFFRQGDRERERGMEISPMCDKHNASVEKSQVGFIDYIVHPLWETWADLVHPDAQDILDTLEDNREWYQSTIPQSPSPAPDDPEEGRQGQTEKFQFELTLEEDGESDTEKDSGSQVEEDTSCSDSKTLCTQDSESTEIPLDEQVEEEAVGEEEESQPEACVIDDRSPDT

Homo sapiens [4] = organism: Homo sapiens; experiment: Selectivity index, ratio of IC50 for PDE4D2 (unknown origin) to IC50 for recombinant His-tagged human PDE4B expressed in sf9 cells using cAMP as substrate by PDELight HTS cAMP phosphodiesterase Kit based luminometry
[5] = Toxicity in zebrafish embryo assessed as effect in tail formation at 3000 uM; set-up: species or system Danio rerio; conditions: in vivo
[6] = Toxicity in zebrafish embryo assessed as change in body shape at 3000 uM; set-up: species or system Danio rerio; conditions: in vivo
[7] = Toxicity in zebrafish embryo assessed as effect in liver formation at 3000 uM; set-up: species or system Danio rerio; conditions: in vivo
[8] = Toxicity in zebrafish embryo assessed as effect in notochord formation at 3000 uM; set-up: species or system Danio rerio; conditions: in vivo
[9] = Toxicity in zebrafish embryo assessed as effect in brain formation at 3000 uM; format: tissue-based, Danio rerio; conditions: in vivo
[10] = Toxicity in zebrafish embryo assessed as effect in heart formation at 3000 uM; format: tissue-based, Danio rerio; conditions: in vivo
[11] = Toxicity in zebrafish embryo assessed as effect in swim bladder formation at 3000 uM; set-up: species or system Danio rerio; conditions: in vivo
[12] = Toxicity in zebrafish embryo assessed as effect in intestine formation at 3000 uM; format: tissue-based, Danio rerio; conditions: in vivo
[13] = Toxicity in zebrafish embryo assessed as effect in somite formation at 3000 uM; set-up: species or system Danio rerio; conditions: in vivo
[14] = Toxicity in zebrafish embryo assessed as effect in fin formation at 3000 uM; set-up: species or system Danio rerio; conditions: in vivo
[15] = Toxicity in zebrafish embryo assessed as effect in lower jaw formation at 3000 uM; set-up: species or system Danio rerio; conditions: in vivo
[16] = Toxicity in zebrafish embryo assessed as effect in upper jaw formation at 3000 uM; set-up: species or system Danio rerio; conditions: in vivo
[17] = molecular target: High affinity cAMP-specific and IBMX-insensitive 3',5'-cyclic phosphodiesterase 8A (Homo sapiens) (UniProt O60658); experiment: Inhibition of recombinant N-terminal GST-tagged full length human PDE8A1 expressed in Sf9 cells using FAM-cAMP as substrate at 10xIC50 incubated for 60 mins by fluorescence plate reader analysis
Chain of High affinity cAMP-specific and IBMX-insensitive 3',5'-cyclic phosphodiesterase 8A (Homo sapiens) (O60658 whole entry): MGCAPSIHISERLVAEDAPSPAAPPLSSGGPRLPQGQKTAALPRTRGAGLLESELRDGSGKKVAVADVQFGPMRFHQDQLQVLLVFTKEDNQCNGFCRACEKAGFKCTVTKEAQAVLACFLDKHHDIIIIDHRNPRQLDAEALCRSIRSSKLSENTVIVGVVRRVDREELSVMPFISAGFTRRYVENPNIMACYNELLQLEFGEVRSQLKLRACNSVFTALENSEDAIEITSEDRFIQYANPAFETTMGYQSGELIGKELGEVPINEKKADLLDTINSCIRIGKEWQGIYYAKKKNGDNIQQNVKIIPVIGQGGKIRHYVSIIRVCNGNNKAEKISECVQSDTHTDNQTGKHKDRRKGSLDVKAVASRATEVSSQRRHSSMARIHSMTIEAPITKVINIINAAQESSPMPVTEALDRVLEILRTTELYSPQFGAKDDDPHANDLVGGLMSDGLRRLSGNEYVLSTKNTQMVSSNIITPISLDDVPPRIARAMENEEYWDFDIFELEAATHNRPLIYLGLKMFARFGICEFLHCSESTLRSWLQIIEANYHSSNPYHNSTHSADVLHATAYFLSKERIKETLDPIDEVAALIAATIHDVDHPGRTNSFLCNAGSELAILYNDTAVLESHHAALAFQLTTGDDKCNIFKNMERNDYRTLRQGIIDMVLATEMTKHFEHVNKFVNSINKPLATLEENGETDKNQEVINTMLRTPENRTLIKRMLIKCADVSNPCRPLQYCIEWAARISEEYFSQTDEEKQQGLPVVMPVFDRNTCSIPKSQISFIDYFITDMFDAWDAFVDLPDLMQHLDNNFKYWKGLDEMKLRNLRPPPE

[18] = molecular target: 3',5'-cyclic-AMP phosphodiesterase 7B (Homo sapiens) (UniProt Q9NP56); experiment: Inhibition of recombinant N-terminal GST tagged and C-terminal His-tagged human PDE7B (109-ens aa) expressed in Sf9 cells using FAM-cAMP as substrate at 1xIC50 incubated for 60 mins by fluorescence plate reader analysis
Chain of 3',5'-cyclic-AMP phosphodiesterase 7B (Homo sapiens) (Q9NP56 whole entry): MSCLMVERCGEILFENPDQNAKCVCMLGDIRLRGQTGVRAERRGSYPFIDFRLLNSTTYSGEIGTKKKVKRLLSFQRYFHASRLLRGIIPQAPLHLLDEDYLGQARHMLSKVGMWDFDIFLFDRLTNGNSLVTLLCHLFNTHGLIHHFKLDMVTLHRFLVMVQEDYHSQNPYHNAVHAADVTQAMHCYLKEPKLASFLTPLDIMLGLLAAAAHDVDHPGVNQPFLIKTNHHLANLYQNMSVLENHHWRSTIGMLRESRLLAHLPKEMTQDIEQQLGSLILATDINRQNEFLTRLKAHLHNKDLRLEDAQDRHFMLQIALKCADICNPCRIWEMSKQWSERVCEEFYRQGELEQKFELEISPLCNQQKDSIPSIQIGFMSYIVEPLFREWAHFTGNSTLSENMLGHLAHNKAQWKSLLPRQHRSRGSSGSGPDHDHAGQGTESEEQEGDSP

[19] = molecular target: High affinity cAMP-specific and IBMX-insensitive 3',5'-cyclic phosphodiesterase 8A (Homo sapiens) (UniProt O60658); experiment: Inhibition of recombinant N-terminal GST-tagged full length human PDE8A1 expressed in Sf9 cells using FAM-cAMP as substrate at 0.1xIC50 incubated for 60 mins by fluorescence plate reader analysis
[20] = molecular target: 3',5'-cyclic-AMP phosphodiesterase 7B (Homo sapiens) (UniProt Q9NP56); experiment: Inhibition of recombinant N-terminal GST tagged and C-terminal His-tagged human PDE7B (109-ens aa) expressed in Sf9 cells using FAM-cAMP as substrate at 0.1xIC50 incubated for 60 mins by fluorescence plate reader analysis
[21] = molecular target: High affinity cAMP-specific and IBMX-insensitive 3',5'-cyclic phosphodiesterase 8A (Homo sapiens) (UniProt O60658); experiment: Inhibition of recombinant N-terminal GST-tagged full length human PDE8A1 expressed in Sf9 cells using FAM-cAMP as substrate at 1xIC50 incubated for 60 mins by fluorescence plate reader analysis
PDE4C = PDE4C (Homo sapiens, UniProt Q08493); experiment: Inhibition of PDE4C (unknown origin) at 100 uM using cAMP as substrate preincubated with enzyme for 15 mins followed by substrate addition and incubated for 1 hr by PDELight HTS cAMP phosphodiesterase Kit based luminometry relative to control; conditions: probe cAMP
Homo sapiens [22] = organism: Homo sapiens; experiment: Selectivity for recombinant His-tagged human PDE4B over PDE4C (unknown origin)
[23] = Selectivity for recombinant His-tagged PDE4B (unknown origin) expressed in Sf9 cells over PDE4D2 (unknown origin); conditions: Homo sapiens
[24] = molecular target: T1, 3',5'-cyclic-AMP phosphodiesterase 4B; experiment: Inhibition of recombinant His-tagged PDE4B (unknown origin) expressed in Sf9 cells using cAMP as substrate preincubated for 15 mins followed by substrate addition and incubated for 1 hr by PDELight HTS cAMP phosphodiesterase Kit based luminometry
[25] = molecular target: Dual specificity calcium/calmodulin-dependent 3',5'-cyclic nucleotide phosphodiesterase 1A (Homo sapiens) (UniProt P54750); experiment: Inhibition of recombinant N-terminal GST-tagged full-length human PDE1A1 expressed in Sf9 cells using FAM-cAMP as substrate at 10xIC50 incubated for 60 mins by fluorescence plate reader analysis
Chain of Dual specificity calcium/calmodulin-dependent 3',5'-cyclic nucleotide phosphodiesterase 1A (Homo sapiens) (P54750 whole entry, the tested form may be a part): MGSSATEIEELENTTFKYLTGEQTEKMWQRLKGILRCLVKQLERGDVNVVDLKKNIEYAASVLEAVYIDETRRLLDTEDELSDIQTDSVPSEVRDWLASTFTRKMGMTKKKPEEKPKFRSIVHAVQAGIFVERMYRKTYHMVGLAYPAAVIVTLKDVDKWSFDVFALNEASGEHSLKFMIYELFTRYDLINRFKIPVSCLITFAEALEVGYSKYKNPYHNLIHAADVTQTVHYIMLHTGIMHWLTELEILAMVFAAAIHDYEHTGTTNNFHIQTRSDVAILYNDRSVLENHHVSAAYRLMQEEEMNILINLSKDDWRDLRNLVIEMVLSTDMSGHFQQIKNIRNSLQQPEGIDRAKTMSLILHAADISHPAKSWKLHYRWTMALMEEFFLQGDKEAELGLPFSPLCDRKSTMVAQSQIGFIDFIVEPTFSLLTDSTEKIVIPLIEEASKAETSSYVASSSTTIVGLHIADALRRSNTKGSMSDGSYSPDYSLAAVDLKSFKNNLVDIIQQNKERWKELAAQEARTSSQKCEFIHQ

[26] = molecular target: Dual specificity calcium/calmodulin-dependent 3',5'-cyclic nucleotide phosphodiesterase 1C (Homo sapiens) (UniProt Q14123); experiment: Inhibition of recombinant N-terminal GST tagged human PDE1C (2 to 634 aa) expressed in Sf9 cells at 0.1xIC50 using FAM-cAMP as substrate incubated for 60 mins by fluorescence plate reader analysis
Chain of Dual specificity calcium/calmodulin-dependent 3',5'-cyclic nucleotide phosphodiesterase 1C (Homo sapiens) (Q14123 whole entry, the tested form may be a part): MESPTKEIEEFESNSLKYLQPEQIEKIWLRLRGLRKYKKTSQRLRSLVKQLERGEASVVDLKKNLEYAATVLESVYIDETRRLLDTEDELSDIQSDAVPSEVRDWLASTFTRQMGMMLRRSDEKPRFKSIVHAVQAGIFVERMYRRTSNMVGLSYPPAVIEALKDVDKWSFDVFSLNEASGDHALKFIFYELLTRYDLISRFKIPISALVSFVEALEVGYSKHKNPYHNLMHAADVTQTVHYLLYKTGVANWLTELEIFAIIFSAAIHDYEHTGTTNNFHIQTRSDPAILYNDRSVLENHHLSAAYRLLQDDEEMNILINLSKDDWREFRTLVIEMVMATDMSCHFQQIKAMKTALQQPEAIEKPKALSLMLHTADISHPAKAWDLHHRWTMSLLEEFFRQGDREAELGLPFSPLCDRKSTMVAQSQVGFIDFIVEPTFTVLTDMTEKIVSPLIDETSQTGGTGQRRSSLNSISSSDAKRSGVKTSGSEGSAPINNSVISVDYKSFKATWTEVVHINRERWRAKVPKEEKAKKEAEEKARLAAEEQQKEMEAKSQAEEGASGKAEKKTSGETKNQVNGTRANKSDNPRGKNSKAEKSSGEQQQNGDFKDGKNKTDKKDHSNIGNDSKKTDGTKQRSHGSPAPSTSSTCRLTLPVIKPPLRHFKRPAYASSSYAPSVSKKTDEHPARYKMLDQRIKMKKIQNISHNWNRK

[27] = molecular target: Dual specificity calcium/calmodulin-dependent 3',5'-cyclic nucleotide phosphodiesterase 1A (Homo sapiens) (UniProt P54750); experiment: Inhibition of recombinant N-terminal GST-tagged full-length human PDE1A1 expressed in Sf9 cells using FAM-cAMP as substrate at 1xIC50 incubated for 60 mins by fluorescence plate reader analysis
[28] = molecular target: Dual specificity calcium/calmodulin-dependent 3',5'-cyclic nucleotide phosphodiesterase 1A (Homo sapiens) (UniProt P54750); experiment: Inhibition of recombinant N-terminal GST-tagged full-length human PDE1A1 expressed in Sf9 cells using FAM-cAMP as substrate at 0.1xIC50 incubated for 60 mins by fluorescence plate reader analysis
[29] = molecular target: Dual specificity calcium/calmodulin-dependent 3',5'-cyclic nucleotide phosphodiesterase 1B (Homo sapiens) (UniProt Q01064); experiment: Inhibition of recombinant N-terminal GST tagged full length human PDE1B expressed in Sf9 cells using FAM-cAMP as substrate at 0.1xIC50 incubated for 60 mins by fluorescence plate reader analysis
Chain of Dual specificity calcium/calmodulin-dependent 3',5'-cyclic nucleotide phosphodiesterase 1B (Homo sapiens) (Q01064 whole entry, the tested form may be a part): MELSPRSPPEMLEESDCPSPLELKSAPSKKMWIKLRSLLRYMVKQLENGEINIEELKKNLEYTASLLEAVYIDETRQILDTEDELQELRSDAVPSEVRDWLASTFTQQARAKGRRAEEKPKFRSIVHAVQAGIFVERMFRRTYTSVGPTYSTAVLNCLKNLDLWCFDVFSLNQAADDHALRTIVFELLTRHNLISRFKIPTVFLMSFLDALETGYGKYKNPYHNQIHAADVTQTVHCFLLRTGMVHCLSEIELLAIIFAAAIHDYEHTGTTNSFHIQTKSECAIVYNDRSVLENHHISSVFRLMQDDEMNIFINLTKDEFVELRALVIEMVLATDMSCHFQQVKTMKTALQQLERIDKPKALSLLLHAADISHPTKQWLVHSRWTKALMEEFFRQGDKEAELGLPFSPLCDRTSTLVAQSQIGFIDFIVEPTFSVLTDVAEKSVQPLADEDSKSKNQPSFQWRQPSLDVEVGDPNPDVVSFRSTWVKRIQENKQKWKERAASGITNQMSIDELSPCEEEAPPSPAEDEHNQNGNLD

[30] = molecular target: Dual specificity calcium/calmodulin-dependent 3',5'-cyclic nucleotide phosphodiesterase 1B (Homo sapiens) (UniProt Q01064); experiment: Inhibition of recombinant N-terminal GST tagged full length human PDE1B expressed in Sf9 cells using FAM-cAMP as substrate at 1xIC50 incubated for 60 mins by fluorescence plate reader analysis
[31] = molecular target: Dual specificity calcium/calmodulin-dependent 3',5'-cyclic nucleotide phosphodiesterase 1C (Homo sapiens) (UniProt Q14123); experiment: Inhibition of recombinant N-terminal GST tagged human PDE1C (2 to 634 aa) expressed in Sf9 cells at 10xIC50 using FAM-cAMP as substrate incubated for 60 mins by fluorescence plate reader analysis
[32] = molecular target: Dual specificity calcium/calmodulin-dependent 3',5'-cyclic nucleotide phosphodiesterase 1C (Homo sapiens) (UniProt Q14123); experiment: Inhibition of recombinant N-terminal GST tagged human PDE1C (2 to 634 aa) expressed in Sf9 cells at 1xIC50 using FAM-cAMP as substrate incubated for 60 mins by fluorescence plate reader analysis
[33] = molecular target: Dual specificity calcium/calmodulin-dependent 3',5'-cyclic nucleotide phosphodiesterase 1B (Homo sapiens) (UniProt Q01064); experiment: Inhibition of recombinant N-terminal GST tagged full length human PDE1B expressed in Sf9 cells using FAM-cAMP as substrate at 10xIC50 incubated for 60 mins by fluorescence plate reader analysis

**Q.** What does the source list for `COC(=O)/C=C/c1[nH]c2ccccc2c1-c1nc2ccccc2nc1Cl`?
**A.** inhibition [1]: > 75%; IC50 [2]: 3880 nM

**Q.** Which IC50 [3] does the source give for `COc1ccc2c(c1)c(-c1nc3ccccc3nc1Cl)cn2C(C)C` here?
**A.** 5020 nM

**Q.** And the Ratio IC50 (Homo sapiens [4])?
**A.** 11.4

**Q.** What about the inhibition [1] of the same molecule?
**A.** > 75%

**Q.** And the IC50 [2]?
**A.** 440 nM

**Q.** With `CCC1(c2ccccc2)C(=O)NC(=O)NC1=O` [PHENOBARBITAL] as the molecule, how does the Activity [5] read?
**A.** Toxic

**Q.** What about the Activity [6] of the same molecule?
**A.** Toxic

**Q.** And the Activity [7]?
**A.** Toxic

**Q.** And the Activity [8]?
**A.** Toxic

**Q.** And the Activity [9]?
**A.** Toxic

**Q.** And the Activity [10]?
**A.** Toxic

**Q.** What about the Activity [11] of the same molecule?
**A.** Toxic

**Q.** What about the Activity [12] of the same molecule?
**A.** Toxic

**Q.** And the Activity [13]?
**A.** Toxic

**Q.** What about the Activity [14] of the same molecule?
**A.** Toxic

**Q.** What about the Activity [15] of the same molecule?
**A.** Toxic

**Q.** What about the Activity [16] of the same molecule?
**A.** Toxic

**Q.** With `C=CCn1cc(-c2ncccc2C#N)c2cc(OC)ccc21` as the molecule, how does the inhibition [1] read?
**A.** > 75%

**Q.** What about the IC50 [2] of the same molecule?
**A.** 1980 nM

**Q.** What does the source list for `OCCN(CCO)c1nc(N2CCCCC2)c2nc(N(CCO)CCO)nc(N3CCCCC3)c2n1`?
**A.** inhibition [17]: 88%; inhibition [18]: 48%; inhibition [19]: 13%; inhibition [20]: 3%; inhibition [21]: 55%

**Q.** What does the source list for `CCOC(=O)/C=C/c1c(-c2nc3ccccc3nc2Cl)c2cc(OC)ccc2n1C(C)C`?
**A.** inhibition [1]: > 75%; IC50 [2]: 5580 nM

**Q.** Which inhibition at 1 h, 100 µM (PDE4C) does the source give for `CCOC(=O)Cn1cc(-c2nc3ccccc3nc2Cl)c2cc(OC)ccc21` here?
**A.** 20 to 30%

**Q.** What about the IC50 [3] of the same molecule?
**A.** 15200 nM

**Q.** And the Ratio IC50 (Homo sapiens [4])?
**A.** 72

**Q.** What about the inhibition [1] of the same molecule?
**A.** > 75%

**Q.** And the IC50 [2]?
**A.** 210 nM

**Q.** What about the Selectivity ratio (Homo sapiens [22]) of the same molecule?
**A.** > 250

**Q.** Which results are given for `Cc1cc2c(s1)N(Cc1cc3cc(Br)ccc3n1S(C)(=O)=O)c1ccccc1N=C2N1CCN(C)CC1`?
**A.** Selectivity ratio [23]: > 10; IC50 [24]: 1100 nM

**Q.** Which inhibition [25] does the source give for `COc1ccc(Cc2nc(O)c3c(C)nc([C@@H](CCCc4ccccc4)[C@@H](C)O)n3n2)cc1OC` here?
**A.** 87%

**Q.** And the inhibition [26]?
**A.** 18%

**Q.** What about the inhibition [27] of the same molecule?
**A.** 52%

**Q.** What about the inhibition [28] of the same molecule?
**A.** 7%

**Q.** And the inhibition [29]?
**A.** 16%

**Q.** And the inhibition [30]?
**A.** 55%

**Q.** What about the inhibition [31] of the same molecule?
**A.** 86%

**Q.** What about the inhibition [32] of the same molecule?
**A.** 52%

**Q.** And the inhibition [33]?
**A.** 86%
